The values below are quoted from earlier work in US20190160050A1, “SMALL MOLECULE INHIBITION FOR PREVENTING OR TREATING FIBROTIC DISEASES” (THE REGENTS OF THE UNIVERSITY OF CALIFORNIA, priority 2016, published 2019).

One data set deals with JNK. The following applies: read-out: IC50 as competitive inhibitor of JNK.
In another data set the test system is Akt/PKB. Conditions: read-out: IC50 (Akt/PKB inhibitor).
The next data set deals with c-fms (Homo sapiens, UniProt P07333). Conditions: read-out: IC50 for c-fms tyrosine kinase.
In data set [1] the target is vascular endothelial growth factor receptor 2 (Homo sapiens, UniProt P35968).
The target of another data set is Lck (Homo sapiens, UniProt P06239).
The target in a further data set is Src (Homo sapiens, UniProt P12931).
Sequence of Src (P12931 whole entry, species assumed): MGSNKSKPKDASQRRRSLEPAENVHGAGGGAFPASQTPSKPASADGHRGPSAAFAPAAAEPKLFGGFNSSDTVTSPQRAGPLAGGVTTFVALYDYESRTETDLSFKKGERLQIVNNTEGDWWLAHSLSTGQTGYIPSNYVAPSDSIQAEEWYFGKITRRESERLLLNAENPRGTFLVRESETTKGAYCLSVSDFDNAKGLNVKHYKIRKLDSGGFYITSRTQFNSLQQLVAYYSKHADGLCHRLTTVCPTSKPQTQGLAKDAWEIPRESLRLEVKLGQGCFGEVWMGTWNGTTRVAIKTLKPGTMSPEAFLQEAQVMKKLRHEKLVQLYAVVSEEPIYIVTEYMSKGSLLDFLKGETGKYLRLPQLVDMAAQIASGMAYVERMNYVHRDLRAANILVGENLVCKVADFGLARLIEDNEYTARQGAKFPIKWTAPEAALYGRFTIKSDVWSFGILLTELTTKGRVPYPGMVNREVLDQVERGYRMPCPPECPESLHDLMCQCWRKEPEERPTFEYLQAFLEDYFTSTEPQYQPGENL

Sequence of Lck (P06239 whole entry, species assumed): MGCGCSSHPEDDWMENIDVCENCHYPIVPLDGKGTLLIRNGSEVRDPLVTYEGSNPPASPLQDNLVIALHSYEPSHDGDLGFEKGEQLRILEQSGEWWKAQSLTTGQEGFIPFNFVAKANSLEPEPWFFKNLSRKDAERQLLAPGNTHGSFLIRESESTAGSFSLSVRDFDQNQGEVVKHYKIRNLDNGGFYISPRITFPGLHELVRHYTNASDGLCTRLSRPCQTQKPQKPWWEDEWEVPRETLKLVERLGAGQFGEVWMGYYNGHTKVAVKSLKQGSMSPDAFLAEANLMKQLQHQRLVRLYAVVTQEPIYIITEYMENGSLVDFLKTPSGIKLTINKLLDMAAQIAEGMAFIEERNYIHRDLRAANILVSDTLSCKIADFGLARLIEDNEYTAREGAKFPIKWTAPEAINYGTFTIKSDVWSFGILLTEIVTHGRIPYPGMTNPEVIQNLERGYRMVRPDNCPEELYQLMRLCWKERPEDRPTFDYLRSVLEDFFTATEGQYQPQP
Sequence of vascular endothelial growth factor receptor 2 (P35968 20-1356, species assumed): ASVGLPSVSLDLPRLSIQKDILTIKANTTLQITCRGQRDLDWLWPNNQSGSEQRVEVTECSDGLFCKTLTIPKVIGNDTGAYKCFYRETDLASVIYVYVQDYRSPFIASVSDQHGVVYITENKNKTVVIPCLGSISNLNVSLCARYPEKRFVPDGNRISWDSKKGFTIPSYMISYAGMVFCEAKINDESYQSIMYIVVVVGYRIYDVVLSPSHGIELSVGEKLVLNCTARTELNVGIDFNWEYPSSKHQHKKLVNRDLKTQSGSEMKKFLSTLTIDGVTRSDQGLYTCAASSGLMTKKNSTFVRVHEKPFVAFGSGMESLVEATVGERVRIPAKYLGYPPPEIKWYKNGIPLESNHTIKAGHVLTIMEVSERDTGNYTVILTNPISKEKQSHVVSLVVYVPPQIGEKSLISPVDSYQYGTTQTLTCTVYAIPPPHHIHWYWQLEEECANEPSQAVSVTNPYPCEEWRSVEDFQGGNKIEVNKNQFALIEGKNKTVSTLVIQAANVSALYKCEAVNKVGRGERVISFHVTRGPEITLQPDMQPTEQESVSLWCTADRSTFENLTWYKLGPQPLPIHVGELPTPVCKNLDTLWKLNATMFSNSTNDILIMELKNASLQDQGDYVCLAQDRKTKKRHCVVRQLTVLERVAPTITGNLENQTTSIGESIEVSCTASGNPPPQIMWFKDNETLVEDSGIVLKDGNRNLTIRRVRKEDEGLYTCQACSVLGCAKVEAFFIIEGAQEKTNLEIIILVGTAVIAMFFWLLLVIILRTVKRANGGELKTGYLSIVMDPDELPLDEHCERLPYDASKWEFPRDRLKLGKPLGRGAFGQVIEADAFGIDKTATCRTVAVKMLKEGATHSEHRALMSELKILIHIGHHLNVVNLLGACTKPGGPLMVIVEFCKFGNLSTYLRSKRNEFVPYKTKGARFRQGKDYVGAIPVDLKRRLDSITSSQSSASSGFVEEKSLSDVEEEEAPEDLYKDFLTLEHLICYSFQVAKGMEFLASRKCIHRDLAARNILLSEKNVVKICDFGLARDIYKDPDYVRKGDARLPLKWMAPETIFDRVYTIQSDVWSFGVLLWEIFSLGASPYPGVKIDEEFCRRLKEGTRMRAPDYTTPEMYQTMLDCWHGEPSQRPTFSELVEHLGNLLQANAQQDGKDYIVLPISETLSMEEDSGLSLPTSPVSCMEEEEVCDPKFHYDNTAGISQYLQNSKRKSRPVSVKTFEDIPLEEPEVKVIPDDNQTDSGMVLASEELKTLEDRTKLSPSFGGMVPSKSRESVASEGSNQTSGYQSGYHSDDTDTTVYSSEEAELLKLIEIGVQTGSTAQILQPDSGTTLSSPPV
Sequence of c-fms (P07333 20-972): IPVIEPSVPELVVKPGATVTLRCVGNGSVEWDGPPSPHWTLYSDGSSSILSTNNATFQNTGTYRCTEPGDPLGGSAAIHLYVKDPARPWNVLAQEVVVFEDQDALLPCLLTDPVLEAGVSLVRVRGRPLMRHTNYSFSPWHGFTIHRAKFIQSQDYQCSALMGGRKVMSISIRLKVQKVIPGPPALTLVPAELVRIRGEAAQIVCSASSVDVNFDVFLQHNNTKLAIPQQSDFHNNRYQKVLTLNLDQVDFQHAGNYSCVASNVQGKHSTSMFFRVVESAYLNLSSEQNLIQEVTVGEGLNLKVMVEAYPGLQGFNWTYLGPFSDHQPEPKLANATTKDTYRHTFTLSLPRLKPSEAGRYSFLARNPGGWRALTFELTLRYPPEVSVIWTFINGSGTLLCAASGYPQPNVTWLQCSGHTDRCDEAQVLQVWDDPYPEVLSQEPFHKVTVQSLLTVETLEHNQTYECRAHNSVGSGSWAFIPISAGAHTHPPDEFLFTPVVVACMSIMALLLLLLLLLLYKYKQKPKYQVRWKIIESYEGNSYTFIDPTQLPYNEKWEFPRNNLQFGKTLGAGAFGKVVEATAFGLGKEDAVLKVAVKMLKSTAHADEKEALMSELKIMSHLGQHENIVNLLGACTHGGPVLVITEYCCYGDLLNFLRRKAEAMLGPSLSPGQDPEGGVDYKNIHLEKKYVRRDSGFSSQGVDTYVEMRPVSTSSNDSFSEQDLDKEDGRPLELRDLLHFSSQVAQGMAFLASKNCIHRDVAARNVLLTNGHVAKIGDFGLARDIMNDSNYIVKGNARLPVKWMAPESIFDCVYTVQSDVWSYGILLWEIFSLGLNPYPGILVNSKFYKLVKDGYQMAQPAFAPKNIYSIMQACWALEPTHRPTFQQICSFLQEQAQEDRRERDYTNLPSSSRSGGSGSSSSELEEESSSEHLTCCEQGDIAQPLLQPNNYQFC

On to `O=c1[nH]nc(Sc2ncc([N+](=O)[O-])s2)n1-c1ccc2c(c1)OCCO2` [BI 78D3, 4-(2,3-dihydro-1,4-benzodioxin-6-yl)-2,4-dihydro-5-[(5-nitro-2-thiazolyl)thio]-3H-1,2,4-triazol-3-one], for which, in the data set on JNK, the IC50 is 280 nM.

In the case of `NC(=S)N/N=C/c1coc2ccccc2c1=O.[Cl][Cu][Cl]` [FPA 124], the IC50 with Akt/PKB is 100 nM.

As for `COc1cc2ncnc(Nc3ccc(Oc4ccccc4)cc3)c2cc1OC` [Src Inhibitor-1, 4-(4′-Phenoxyanilino)-6,7-dimethoxyquinazoline, 6,7-Dimethoxy-N-(4-phenoxyphenyl)-4-quinazolinamine], the IC50 at c-fms was 30000 nM; in data set [1], 320 nM; on Lck, 88 nM; at Src, 44 nM.
